According to ChEMBL document CHEMBL4828751, “Discovery of novel tubulin/HDAC dual-targeting inhibitors with strong antitumor and antiangiogenic potency” (Eur J Med Chem, 2021):
Active and inactive are the calls of the source. No cut-off for these calls is given here.

Experiments:
U-937 = assay: Antiproliferative activity against human U-937 cells assessed as cell growth inhibition after 72 hrs by CCK8 assay; format: functional, cell-based; settings: U-937, 72 h
MGC-803 [1] = assay: Induction of apoptosis in human MGC-803 cells assessed as necrotic cells at 2 nM measured after 48 hrs by Annexin V-APC/PI double staining based flow cytometry assay (reference value: 0.44%); format: functional, cell-based
MGC-803 [2] = assay: Induction of apoptosis in human MGC-803 cells assessed as viable cells at 2 nM measured after 48 hrs by Annexin V-APC/PI double staining based flow cytometry assay (Rvb =93.5 %); format: functional, cell-based
MGC-803 [3] = assay: Induction of cell cycle arrest in human MGC-803 cells assessed as accumulation at G1 phase at 2 nM incubated for 24 hrs by propidium iodide staining based flow cytometry (Rvb =39.64 %); format: functional
MGC-803 [4] = assay: Induction of cell cycle arrest in human MGC-803 cells assessed as accumulation at S phase at 2 nM incubated for 24 hrs by propidium iodide staining based flow cytometry (Rvb =31.51 %); format: functional
MGC-803 [5] = assay: Antiproliferative activity against human MGC-803 cells assessed as cell growth inhibition after 72 hrs by SRB assay; format: functional, cell-based; settings: MGC-803, 72 h
MGC-803 [6] = assay: Induction of cell cycle arrest in human MGC-803 cells assessed as accumulation at G2/M phase at 2 nM incubated for 24 hrs by propidium iodide staining based flow cytometry (reference value: 28.59 %); format: functional
HeLa = assay: Antiproliferative activity against human HeLa cells assessed as cell growth inhibition after 72 hrs by SRB assay; format: functional, cell-based
MGC-803 [7] = assay: Induction of apoptosis in human MGC-803 cells assessed as early apoptotic cells at 2 nM measured after 48 hrs by Annexin V-APC/PI double staining based flow cytometry assay (reference value: 2.42 %); format: functional, cell-based
MGC-803 [8] = assay: Induction of apoptosis in human MGC-803 cells assessed as late apoptotic cells at 2 nM measured after 48 hrs by Annexin V-APC/PI double staining based flow cytometry assay (reference value: 3.62 %); format: functional, cell-based
Histone deacetylase = assay: Inhibition of HDAC (unknown origin); format: protein assay, Homo sapiens
MCF7 = assay: Antiproliferative activity against human MCF7 cells assessed as cell growth inhibition after 72 hrs by SRB assay; format: functional, cell-based; settings: MCF7, 72 h
Tubulin = assay: Inhibition of tubulin polymerization (unknown origin) measured after 1 min by fluorescence assay; format: protein-complex assay, Homo sapiens; settings: read-out: IC50
HepG2 = assay: Antiproliferative activity against human HepG2 cells assessed as cell growth inhibition after 72 hrs by SRB assay; format: functional, cell-based; settings: HepG2, 72 h
A549 = assay: Antiproliferative activity against human A549 cells assessed as cell growth inhibition after 72 hrs by SRB assay; format: functional, cell-based; settings: A549, 72 h
Histone deacetylase 1 = Histone deacetylase 1 (Homo sapiens, UniProt Q13547); assay: Inhibition of HDAC1 (unknown origin)
Chain of Histone deacetylase 1 (Q13547 whole entry): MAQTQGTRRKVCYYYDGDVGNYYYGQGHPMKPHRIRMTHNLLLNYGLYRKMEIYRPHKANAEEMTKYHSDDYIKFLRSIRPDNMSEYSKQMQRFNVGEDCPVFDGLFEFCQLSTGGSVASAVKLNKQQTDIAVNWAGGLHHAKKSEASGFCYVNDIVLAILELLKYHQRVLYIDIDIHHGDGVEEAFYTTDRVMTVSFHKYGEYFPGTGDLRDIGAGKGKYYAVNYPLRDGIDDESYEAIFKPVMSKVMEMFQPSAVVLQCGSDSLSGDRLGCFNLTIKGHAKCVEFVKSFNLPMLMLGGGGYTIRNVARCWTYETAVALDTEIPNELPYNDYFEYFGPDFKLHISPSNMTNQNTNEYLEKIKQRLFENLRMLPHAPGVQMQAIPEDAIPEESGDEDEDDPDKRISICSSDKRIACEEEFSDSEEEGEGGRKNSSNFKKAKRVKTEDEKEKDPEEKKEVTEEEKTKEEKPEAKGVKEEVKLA

Histone deacetylase 11 = biological target: T1, Histone deacetylase 11 (Homo sapiens, UniProt Q96DB2); assay: Inhibition of HDAC11 (unknown origin)
T1 sequence (Q96DB2 whole entry): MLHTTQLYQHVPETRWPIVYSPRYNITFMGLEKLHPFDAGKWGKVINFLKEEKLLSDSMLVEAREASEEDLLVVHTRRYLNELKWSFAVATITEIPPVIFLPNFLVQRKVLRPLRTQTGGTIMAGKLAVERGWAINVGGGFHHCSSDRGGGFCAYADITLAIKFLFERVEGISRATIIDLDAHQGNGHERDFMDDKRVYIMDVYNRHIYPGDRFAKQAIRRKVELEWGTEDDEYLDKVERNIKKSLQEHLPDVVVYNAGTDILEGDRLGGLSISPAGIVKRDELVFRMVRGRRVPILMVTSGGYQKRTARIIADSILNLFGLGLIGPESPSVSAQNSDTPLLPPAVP

Histone deacetylase 3 = Histone deacetylase 3 (Homo sapiens, UniProt O15379); assay: Inhibition of HDAC3 (unknown origin)
Chain of Histone deacetylase 3 (O15379 whole entry): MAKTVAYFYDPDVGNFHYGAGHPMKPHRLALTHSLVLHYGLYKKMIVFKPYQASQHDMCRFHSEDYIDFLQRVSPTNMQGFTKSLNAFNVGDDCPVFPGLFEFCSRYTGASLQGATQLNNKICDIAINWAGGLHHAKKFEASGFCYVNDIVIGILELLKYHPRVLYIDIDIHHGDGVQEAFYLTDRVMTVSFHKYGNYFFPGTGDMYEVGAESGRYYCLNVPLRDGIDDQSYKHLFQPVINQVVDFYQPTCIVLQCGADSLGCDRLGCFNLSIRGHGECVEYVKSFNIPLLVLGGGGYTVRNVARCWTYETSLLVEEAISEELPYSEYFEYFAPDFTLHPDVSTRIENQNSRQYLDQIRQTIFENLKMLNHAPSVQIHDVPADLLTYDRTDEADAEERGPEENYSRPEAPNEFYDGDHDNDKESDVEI

Histone deacetylase 8 = biological target: T2, Histone deacetylase 8 (Homo sapiens, UniProt Q9BY41); assay: Inhibition of HDAC8 (unknown origin)
T2 sequence (Q9BY41 whole entry): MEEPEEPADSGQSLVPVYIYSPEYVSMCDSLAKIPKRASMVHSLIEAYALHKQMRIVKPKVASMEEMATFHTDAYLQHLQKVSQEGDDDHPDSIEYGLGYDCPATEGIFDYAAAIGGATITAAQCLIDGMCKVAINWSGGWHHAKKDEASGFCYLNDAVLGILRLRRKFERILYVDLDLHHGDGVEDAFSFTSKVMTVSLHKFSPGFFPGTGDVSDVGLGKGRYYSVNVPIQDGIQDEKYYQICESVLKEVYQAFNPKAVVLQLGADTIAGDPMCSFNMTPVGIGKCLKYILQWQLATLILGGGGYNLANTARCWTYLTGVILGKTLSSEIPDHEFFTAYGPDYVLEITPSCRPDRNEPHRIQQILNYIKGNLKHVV

Histone deacetylase 2 = Histone deacetylase 2 (Homo sapiens, UniProt Q92769); assay: Inhibition of HDAC2 (unknown origin)
Chain of Histone deacetylase 2 (Q92769 whole entry): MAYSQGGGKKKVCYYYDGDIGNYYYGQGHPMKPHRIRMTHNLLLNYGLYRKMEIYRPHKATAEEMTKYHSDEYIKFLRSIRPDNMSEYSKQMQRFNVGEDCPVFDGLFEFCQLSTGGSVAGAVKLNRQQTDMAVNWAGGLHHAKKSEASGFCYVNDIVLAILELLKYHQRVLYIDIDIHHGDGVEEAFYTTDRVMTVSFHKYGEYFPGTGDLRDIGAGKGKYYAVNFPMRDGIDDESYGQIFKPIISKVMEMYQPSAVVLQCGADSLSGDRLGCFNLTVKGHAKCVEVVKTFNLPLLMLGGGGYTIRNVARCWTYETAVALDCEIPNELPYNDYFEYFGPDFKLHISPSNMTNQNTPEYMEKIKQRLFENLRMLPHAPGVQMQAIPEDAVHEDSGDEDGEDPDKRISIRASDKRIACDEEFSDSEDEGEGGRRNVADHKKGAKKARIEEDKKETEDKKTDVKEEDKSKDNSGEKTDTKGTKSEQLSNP

COc1ccc(/C=C\c2cc(OC)c(OC)c(OC)c2)cc1O [COMBRETASTATIN A4]
IC50 (U-937): 1 nM | Activity (MGC-803 [1]): Active | Activity (MGC-803 [2]): Active | Activity (MGC-803 [3]): 40.88% | Activity (MGC-803 [4]): 31.58% | IC50 (MGC-803 [5]): 2 nM | Activity (MGC-803 [6]): Dose-Dependent Effect | Activity (MGC-803 [6]; record 2): 28.25% | IC50 (HeLa): 9 nM | Activity (MGC-803 [7]): Active | Activity (MGC-803 [8]): Active

COc1ccc(C(=O)c2cc(OC)c(OC)c(OC)c2)cc1OCC(=O)NO
IC50 (U-937): 1130 nM | IC50 (Histone deacetylase): 250 nM | IC50 (MCF7): 189 nM | IC50 (Tubulin): 19600 nM | IC50 (MGC-803 [5]): 105 nM | IC50 (HeLa): 753 nM | IC50 (HepG2): 521 nM | IC50 (A549): > 5000 nM

O=C(NCC1(c2nc(-c3ccccc3)cs2)CCOCC1)c1cccc(-c2noc(C(F)(F)F)n2)c1
IC50 (Histone deacetylase 1): Not Active | IC50 (Histone deacetylase 11): Not Active | IC50 (Histone deacetylase 3): Not Active | IC50 (Histone deacetylase 8): Not Active | IC50 (Histone deacetylase 2): Not Active
